Experimental data as given in US20220153734A1, “Pyrazolopyridine Compounds For IRE1 Inhibition” (Optikira, LLC, priority 2019, published 2022).

What was measured:
[1] = target: T1, IRE1α (Homo sapiens, UniProt O75460); assay: Biochemical assay to detect inhibition of kinase activity of IRE1α (ADP-Glo)
T1 construct: purchased Signal Chem E31-11G
Procedure: Biochemical Assays to Detect Inhibition of Kinase Activity of IRE1α
The kinase reactions were performed in 384 well white ProxiPlate-384 Plus plates (PERKIN Elmer 6008280) using 25 mM MOPS assay buffer with 1 mM dithiothreitol, 25 mM MgCl2, 12.5 mM β-glycerophosphate, 5 mM EGTA, and 50 μg/mL BSA. Test compounds were prepared on the day of assay and dispensed using D300 digital dispenser as a 10-point ½ log dilution series in duplicate, normalized to a final DMSO concentration of 3%. Test compounds were pre-incubated for 30 min at room temperature with 10 nM IRE1α kinase (E31-11G from Signal Chem) in 2.5 μL of assay buffer and the reaction started by addition of 2.5 μL of ATP in assay buffer, to give a final ATP concentration of 100 μM and 5 nM IRE1α kinase. After 4 hours incubation at room temperature the reactions were stopped and the kinase activity determined using the ADP-Glo™ reagent from Promega, according to the manufacturer's instructions. Luminescence was measured on a luminometer (EnVision, PerkinElmer) and IC50 values calculated by fitting a sigmoidal curve to percent inhibition of control versus Log10 of compound concentration.

[2] = target: T1, IRE1α; assay: Biochemical assay: inhibition of RNase activity of IRE1α; conditions: enzyme 0.325 nM, substrate 100 nM, 20 minutes
Outline: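 Recombinant IRE1α (0.325 nM final) pre-incubated 30 min at room temperature with compounds (10-point ½-log series, duplicate, 4% DMSO final). Then 100 nM fluorophore/quencher-labelled RNA substrate added in 50 mM Tris, 0.5 mM MgCl2, 10 mM KCl, 2 mM DTT. Urea stop after 20 min; fluorescence read; IC50 from sigmoidal fit.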

[3] = test system: ARPE-19 cells stably expressing XBP1 (a.a. 1-376); assay: Cellular XBP1 splicing assay (NanoLuc luciferase, thapsigargin); type: cell-based; conditions: Homo sapiens, ARPE-19, 4 h, thapsigargin 150 nM
Outline: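 ARPE-19 cells carrying an XBP1(1-376)-NanoLuc splicing reporter were pretreated with compound (10-point ½-log series, 0.117% DMSO) for 30 min, then stressed with 150 nM thapsigargin for 4 h at 37° C. Luminescence was read, and IC50 values came from sigmoidal fits of percent inhibition of control.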

T1 sequence (O75460 468-977 limits assumed): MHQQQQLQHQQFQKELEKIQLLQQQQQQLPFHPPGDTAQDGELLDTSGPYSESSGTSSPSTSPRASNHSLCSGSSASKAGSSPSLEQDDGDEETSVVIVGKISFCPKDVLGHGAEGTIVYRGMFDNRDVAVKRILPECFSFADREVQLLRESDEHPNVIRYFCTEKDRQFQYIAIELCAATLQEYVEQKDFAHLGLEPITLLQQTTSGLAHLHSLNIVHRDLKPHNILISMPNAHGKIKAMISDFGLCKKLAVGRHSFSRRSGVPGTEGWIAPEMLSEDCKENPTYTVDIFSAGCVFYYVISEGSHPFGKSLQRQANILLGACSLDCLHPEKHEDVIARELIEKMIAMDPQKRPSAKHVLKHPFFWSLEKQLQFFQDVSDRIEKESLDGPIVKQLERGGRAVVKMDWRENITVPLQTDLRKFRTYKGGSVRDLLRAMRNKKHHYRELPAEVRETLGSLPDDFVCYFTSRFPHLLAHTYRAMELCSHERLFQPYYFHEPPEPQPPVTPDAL

IC50 [1]	IC50 [2]	IC50 [3]	Compound
2.7 nM	0.5 nM	2 nM	CC(C)n1nc(-c2ccc(NS(=O)(=O)Cc3ccccc3Cl)c(F)c2)c2c(N)ncc([C@H]3CC[C@H](N(C)C)CC3)c21 [Compound A51, N-(4-(4-amino-7-((1r,4r)-4-(dimethylamino)cyclohexyl)-1-isopropyl-1H-pyrazolo[4,3-c]pyridin-3-yl)-2-difluorophenyl)-1-(2-chlorophenyl)methanesulfonamide]
4.6 nM	6.1 nM	15 nM	CCn1nc(-c2ccc(NS(=O)(=O)c3ccccc3Cl)c(F)c2)c2c(N)ncc([C@H]3CC[C@H](NC4COC4)CC3)c21 [Compound A52, N-(4-(4-amino-1-ethyl-7-((1r,4r)-4-(oxetan-3-ylamino)cyclohexyl)-1H-pyrazolo[4,3-c]pyridin-3-yl)-2-fluorophenyl)-2-chlorobenzenesulfonamide]
1.9 nM	1.5 nM	9.2 nM	CCn1nc(-c2ccc(NS(=O)(=O)Cc3ccccc3F)c(F)c2)c2c(N)ncc([C@H]3CC[C@H](NC4COC4)CC3)c21 [Compound A53, N-(4-(4-amino-1-ethyl-7-((1r,4r)-4-(oxetan-3-ylamino)cyclohexyl)-1H-pyrazolo[4,3-c]pyridin-3-yl)-2-fluorophenyl)-1-(2-fluorophenyl)methanesulfonamide]
0.9 nM	0.4 nM	2.5 nM	CC(C)n1nc(-c2ccc(NS(=O)(=O)Cc3ccccc3F)c(F)c2)c2c(N)ncc([C@H]3CC[C@H](NC4COC4)CC3)c21 [Compound A57, N-(4-(4-amino-1-isopropyl-7-((1r,4r)-4-(oxetan-3-ylamino)cyclohexyl)-1H-pyrazolo[4,3-c]pyridin-3-yl)-2-fluorophenyl)-1-(2-fluorophenyl)methanesulfonamide]
